Read-outs that look alike come from different tables or passages of the source.
Experiments:
Type in all cases: cell-based
[1] = tested on: U2OS cells stably expressing tfLC3; settings: for autophagy inhibition at 3 μM: FIG. 10B
Experimental: U2OS cells stably expressing tfLC3 were seeded at 50,000 cells per well in 5A McCoy's with 10% FBS on number 1.5 coverglass in 24-well tissue culture dishes. After 24 hours, cells were treated with known autophagy controls rapamycin [100 nM] (Millipore, 553210-10 mg), bafilomycin A1 [100 nM] (AG Scientific, B-1183), AZD-8055 [100 nM](Selleck Chemicals, S1555), and CQ [50 μM] as well as autophagy inhibitors (CQ, QN, Example 7, and Example 27) at doses of 0.1 μM, 0.25 μM, 0.5 μM, 1 μM, 5 μM, 15 μM, 25 μM, and 50 μM for three hours. Cells were washed with 1×PBS, fixed with 3.7% formaldehyde, and nuclei were stained with Hoechst 33342 (2 μg/mL). Coverglass was inverted onto microscope slides using mounting gel. Cells were imaged using a 60× oil-immersion objective on a Nikon Eclipse Ti fluorescent microscope and 10 images at each dose were taken for quantification. Image processing and quantification were completed with the Nikon NIS Elements software. To quantify, images were deconvolved using a 2D blind deconvolution function with one iteration and settings of normal cell thickness and normal noise level. Regions of interest (ROI) were drawn around the edges of each cell. Intensity thresholds were set to include all pixels equal to or greater than the intensity above the mean background fluorescence using the separation feature and restrictions set for puncta size (FIG. 9). Objects within the threshold for each ROI were quantified using an automated object count function and exported for analysis. Although other parameters were also collected, the mean intensity of the objects was averaged between the 10 images of each dose, or approximately 50 cells (FIGS. 9B and 9C). Representative images were chosen for each dose and the lookup table (LUT) brightness' were set based on the mean intensity of the DMSO control (FIGS. 8A and 10A). The mean intensity of each image was divided by the mean intensity of the DMSO control to control for brightness and the LUTs were adjusted by the percent difference to avoid background and for consistent visualization. All other settings (gain, exposure time, and lamp strength) were kept the same across all conditions. […] Mean intensity was further chosen for quantification as it accurately represents both the increase in puncta number and area when the accumulation of autophagosomes partially fuse (FIG. 9C, 9D). Quantification of the red channel (RFP-LC3 puncta) was performed to determine the total autophagic vesicle population (both autophagosomes and autolysosomes).
Autophagy inhibition can be measured by fluorescent microscopy using cells expressing a tandem fluorescent (RFP-GFP) labeled LC3 sensor (tfLC3). Upon autophagosome nucleation, LC3 is localized to the autophagic membrane and the overlapping GFP and RFP fluorescence appears as yellow puncta. After the autophagosome matures, it fuses with the lysosome, forming an autolysosome. The GFP in this LC3 sensor is pH labile and becomes quenched by the acidic environment of the autolysosome. However, the RFP remains stable; therefore, autolysosomes are indicated by red puncta. Accordingly, when autophagy is inhibited at the final stage (completion), the abundance of yellow puncta is expected to increase proportionally to the level of autophagy inhibition.
Cells were then fixed and imaged by fluorescent microscopy.

[2] = tested on: UACC-257 melanoma cell line; experiment: Cell viability (IC50) screen, CellTiter Glo, UACC-257; settings: Homo sapiens
Experimental: (§1) U2OS cells were seeded at 500 cells per well in 5A McCoy's with 10% FBS in 96-well clear bottom, black-walled tissue culture plates. All melanoma cell lines (A375, UACC-91, UACC-257, UACC-502, UACC-903, UACC-1308, UACC-1940, UACC-2534, and UACC-3291) were seeded at 5,000 cells per well in RPMI 1640 with 10% FBS in 96-well clear bottom, black-walled tissue culture plates. After 24 hour incubation, cells were treated with VATG compounds in triplicate with a 10-point half log dose response from […] for 24 and 48 hours. Medium was removed and 2× CellTiter Glo (Promega, G7571) reagent mixed 1:1 with Opti-MEM (Invitrogen, 31985062) was added at 100 μL per well and incubated at room temperature for 15 minutes while rocking. 75 μL per well was moved to a white-walled 96-well plate and luminescence quantified using the 96 LUM program on an EnVision plate reader (PerkinElmer) and exported for analysis. All triplicate data points were averaged and luminescent readings for each treatment were normalized to vehicle control for change in viability. Dose response curves were input into SigmaPlot for IC50 calculations (Systat Software Inc).

[3] = tested on: UACC-903 melanoma cell line; experiment: Cell viability (IC50) screen, CellTiter Glo, UACC-903; settings: Homo sapiens
Experimental: as §1

[4] = UACC-257 cell viability, CellTiter Glo, read-out: IC50
[5] = UACC-903 cell viability, CellTiter Glo, read-out: IC50

Compound	Potency (EC/ECCQ) [1]	fold more potent at autophagy inhibition than QN [1]	autophagy inhibition at 3 μM [1]	IC50 [2, 4] [nM]	IC50 [3, 5] [nM]	Potency (EC/ECCQ) ([1]; relative potency score versus chloroquine, greater than one = more potent than CQ)	IC50 ([2]; UACC-257) [nM]	IC50 ([3]; UACC-903) [nM]	concentration giving a significant increase in mean intensity of autophagic puncta ([1]; U2OS-tfLC3, ten-point dose response, FIG. 8B) [µM]	Effective Concentration (EC) ([1]; concentration with statistically significant increase in puncta number over vehicle control, three hours) [µM]
COc1ccc2nc3cc(Cl)ccc3c(NCCCCN3CCN(C)CC3)c2c1 [Example 7, 6-Chloro-2-methoxy-N-(4-(4-methylpiperazin-1-yl)butyl)acridin-9-amine]	150	2	inhibit autophagy	2000	1500	–	–	–	–	–
CN1CCN(CCNc2c3c(nc4cc(Cl)ccc24)CCCC3)CC1 [Example 27, 6-Chloro-N-(2-(4-methylpiperazin-1-yl)ethyl)-1,2,3,4-tetrahydroacridin-9-amine]	–	–	inhibit autophagy	–	–	3	25300	27200	–	–
CCN(CC)CCCC(C)Nc1c2ccc(Cl)cc2nc2ccc(OC)cc12 (stereo not drawn) [Quinacrine, quinacrine, reference compound]	~60	–	inhibit autophagy	3000	2700	–	–	–	0.25	0.25

Reference: US20170000784A1, “Autophagy Inhibitors” (priority 2013, published 2017)
